# Values quoted from earlier work, collected in patent US20080254073A1, “Transdermal Patch Comprising Paroxetine” (IKSU PARMACEUTICAL CO., LTD., priority 2005, published 2008).
# Experiments:
# [1] = not given; remark: listed apart in the source
structure (smiles),measurement,setting,value
Fc1ccc([C@@H]2CCNC[C@H]2COc2ccc3c(c2)OCO3)cc1 [Paroxetine],partition coefficient of the drug using octanol-water,,169.20±17.19
same,log P,octanol-water,2.23
same,elimination half-life,"[1]; after multiple oral administration, healthy volunteers",about 24 hours
same,time to reach maximum plasma concentration of the drug,"[1]; oral administration, healthy volunteers",about five
same,influence of food or antacid on absorption,"[1]; oral, administered together with food or antacid",not influenced by food or antacid
same,difference in the area under the plasma concentration-time curve (AUC),"[1]; oral, differences among individuals",about 35 times
